Assay results as given in BigSolDB 2.1.

## O=C(O)CCCC(=O)O
In cyclohexanone, 294.15 K
  solubility (mole fraction): 0.153
In cyclohexanone, 298.45 K
  solubility (mole fraction): 0.167
In cyclohexanone, 302.45 K
  solubility (mole fraction): 0.181
In cyclohexanone, 307.15 K
  solubility (mole fraction): 0.2
In cyclohexanone, 312.45 K
  solubility (mole fraction): 0.238
In cyclohexanone, 317.05 K
  solubility (mole fraction): 0.27
In cyclohexanone, 321.75 K
  solubility (mole fraction): 0.309
In cyclohexanone, 326.35 K
  solubility (mole fraction): 0.351
In cyclohexanone, 331.55 K
  solubility (mole fraction): 0.401
In cyclohexanone, 335.25 K
  solubility (mole fraction): 0.437
In propionic acid, 289.55 K
  solubility (mole fraction): 0.238
In propionic acid, 294.15 K
  solubility (mole fraction): 0.272
In propionic acid, 302.15 K
  solubility (mole fraction): 0.337
In propionic acid, 305.65 K
  solubility (mole fraction): 0.365
In propionic acid, 309.15 K
  solubility (mole fraction): 0.395
In propionic acid, 312.85 K
  solubility (mole fraction): 0.42
In propionic acid, 316.15 K
  solubility (mole fraction): 0.447
In propionic acid, 319.65 K
  solubility (mole fraction): 0.474
In propionic acid, 323.65 K
  solubility (mole fraction): 0.509
In propionic acid, 332.15 K
  solubility (mole fraction): 0.587
In ε-caprolactone, 286.25 K
  solubility (mole fraction): 0.124
In ε-caprolactone, 291.55 K
  solubility (mole fraction): 0.153
In ε-caprolactone, 296.15 K
  solubility (mole fraction): 0.183
In ε-caprolactone, 300.25 K
  solubility (mole fraction): 0.214
In ε-caprolactone, 304.45 K
  solubility (mole fraction): 0.245
In ε-caprolactone, 308.55 K
  solubility (mole fraction): 0.274
In ε-caprolactone, 312.45 K
  solubility (mole fraction): 0.304
In ε-caprolactone, 316.05 K
  solubility (mole fraction): 0.334
In ε-caprolactone, 320.25 K
  solubility (mole fraction): 0.364
In ε-caprolactone, 325.25 K
  solubility (mole fraction): 0.402
